Results on ten molecules are retold here after patent EP1803452A1, “ESTER DERIVATIVE AND PHARMACEUTICAL USE THEREOF” (Japan Tobacco, Inc., priority 2004, dated 2006).

Each structure is given as a SMILES string.

Data set [1] is described as follows: Stability test in buffer (pH 7.4). The class given is physicochemical. Conditions: phosphate buffer/acetonitrile 7:3, 100 mM potassium phosphate buffer (pH 7.4) and acetonitrile 7:3 (v/v), LC/MS; for remaining at 10 min: 10 minutes at 37°C, read-out: Buf. remaining rate (%/10min); for remaining at 1 h: 60 minutes at 37°C, read-out: Buf. remaining rate (%/60min). The gist of the method: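 Parent compound measured by LC/MS after 0, 10 or 60 min at 37°C in a 7:3 (v/v) mix of 100 mM potassium phosphate buffer and acetonitrile, with the reaction stopped by acetonitrile plus formic acid (final 0.1%). Percentage remaining is expressed relative to the zero-time amount.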

Data set [2] can be described thus: Metabolic stability test in liver S9. Conditions: pH 7.4, human liver S9 2 mg protein/mL, LC/MS; for remaining at 10 min: unchanged form after 10 minutes at 37°C, read-out: Remaining rate in human liver S9 (%/10min); for remaining at 1 h: unchanged form after 60 minutes at 37°C, read-out: Remaining rate in human liver S9 (%/60min). The class given is in vitro ADME. The method in brief: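 Compound from DMSO solution was incubated at 37°C with human liver S9 (final 2 mg protein/mL) in 100 mM potassium phosphate pH 7.4 with an NADPH-regenerating system for 0, 10 and 60 minutes. Reactions were stopped with acetonitrile/0.1% formic acid. Unchanged compound was measured by LC/MS as remaining rate (%) relative to zero time.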

Data set [3] can be described thus: Metabolic stability test in plasma. The data set is classed as in vitro ADME, human. Conditions: LC/MS; for remaining at 10 min: unchanged form after 10 minutes at 37°C in human plasma, read-out: Remaining rate in human plasma (%/10min); for remaining at 1 h: unchanged form after 60 minutes at 37°C in human plasma, read-out: Remaining rate in human plasma (%/60min). The gist of the method:
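Remaining rate (%) versus zero time was derived from LC/MS measurement of parent compound after centrifugation. Plasma from human, mouse and hamster received DMSO-dissolved compound and was held at 37°C for 0, 10 or 60 minutes before acetonitrile containing formic acid (final 0.1%) stopped the reaction.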

The target in data set [4] is T1, Microsomal triglyceride transfer protein (MTP) from human small intestine microsome (Homo sapiens, UniProt P55157).
T1 construct: Human small intestine microsome was dialyzed against 10 mM phosphate buffer; tissue Tissue Transforming Technologies, Inc; host or cells: Human small intestine microsomes, dialysed, centrifuged, and the supernatant purified on DEAE Sepharose (FPLC)
The experiment in a line: Inhibition test of interliposomal triglyceride (TG) transfer activity by MTP. The class given is biochemical. Conditions: purified MTP from human small intestine microsome, 14C-triolein donor/acceptor liposomes, 37 °C for 1.5 hours.
Source text: Firstly, in order to prepare the donor, there were volatilized under a stream of nitrogen gas a phosphatidylcholine solution containing phosphatidylcholine labeled with ^3H, a cardiolipin solution, and a triolein solution containing triolein labeled with ^14C (each solution had been already dissolved in an appropriate organic solvent), or in order to prepare the acceptor, there were volatilized under nitrogen flow a phosphatidylcholine solution containing phosphatidylcholine labeled with ^3H and a cardiolipin solution (each solution had been already dissolved in an appropriate organic solvent). An appropriate amount of a reaction buffer (15 mM Tris-HCl buffer containing 1 mM EDTA.Na2, 40 mM NaCl, and 0.5% (w/v) bovine serum albumin, pH 7.4) was added thereto to be emulsified. […] Each of the resulting supernatant was used for donor or acceptor.
Each radioactivity in the acceptor and the donor was measured by liquid scintillation counter, and a mixed solution of the acceptor and the donor was prepared with a reaction buffer so as to be a donor-derived radioactivity of 16,000 dpm/400 µL and a acceptor-derived radioactivity of 4,000 dpm/400 µL. 400 µL of the mixed solution of the donor and the acceptor, 45 µL of the reaction buffer, 50 µL of MTP (20 µg/mL), and 5 µL of a sample dissolved in DMSO (dimethyl sulfoxide) or 5 µL of DMSO was mixed (total amount: 500 µL). The mixture was incubated at 37 °C for 1.5 hours. […] The radioactivity in the acceptor was measured by liquid scintillation counter. The value obtained by subtracting the radioactivity in a blank group from the radioactivity in the acceptor of a DMSO group was determined as MTP-mediated TG transfer activity, and it was compared with the value obtained by subtracting the radioactivity in the blank group from the radioactivity in a sample group. […] Inhibition rate (%) was calculated from values obtained according to the following equation. Inhibition rate(%) = (1 minus ((radioactivity of sample group minus radioactivity of blank group)/(radioactivity of DMSO group minus radioactivity of blank group))) × 100.

T1 sequence (P55157 19-894): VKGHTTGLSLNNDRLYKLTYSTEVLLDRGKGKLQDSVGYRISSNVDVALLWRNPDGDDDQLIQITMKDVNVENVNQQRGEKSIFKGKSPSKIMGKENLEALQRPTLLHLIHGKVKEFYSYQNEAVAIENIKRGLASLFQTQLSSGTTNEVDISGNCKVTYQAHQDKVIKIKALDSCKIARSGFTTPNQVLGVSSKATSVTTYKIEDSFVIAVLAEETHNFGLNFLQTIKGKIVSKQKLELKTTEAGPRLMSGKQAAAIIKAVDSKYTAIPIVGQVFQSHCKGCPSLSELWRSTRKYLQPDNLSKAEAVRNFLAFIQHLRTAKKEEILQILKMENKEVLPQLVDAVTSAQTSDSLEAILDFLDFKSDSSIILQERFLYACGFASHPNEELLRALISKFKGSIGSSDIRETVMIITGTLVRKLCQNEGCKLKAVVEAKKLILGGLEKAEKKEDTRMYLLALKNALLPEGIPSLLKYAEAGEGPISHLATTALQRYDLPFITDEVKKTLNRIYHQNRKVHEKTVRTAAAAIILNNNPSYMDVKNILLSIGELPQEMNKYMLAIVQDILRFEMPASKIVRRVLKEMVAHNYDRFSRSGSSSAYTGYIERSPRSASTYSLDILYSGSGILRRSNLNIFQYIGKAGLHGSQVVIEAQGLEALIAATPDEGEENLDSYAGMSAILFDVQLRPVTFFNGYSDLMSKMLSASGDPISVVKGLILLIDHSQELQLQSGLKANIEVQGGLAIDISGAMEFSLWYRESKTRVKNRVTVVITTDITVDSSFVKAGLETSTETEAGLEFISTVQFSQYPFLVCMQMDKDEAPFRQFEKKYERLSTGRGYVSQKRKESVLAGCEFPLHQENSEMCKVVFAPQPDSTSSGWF
T1 sequence (P07237 18-508 partner): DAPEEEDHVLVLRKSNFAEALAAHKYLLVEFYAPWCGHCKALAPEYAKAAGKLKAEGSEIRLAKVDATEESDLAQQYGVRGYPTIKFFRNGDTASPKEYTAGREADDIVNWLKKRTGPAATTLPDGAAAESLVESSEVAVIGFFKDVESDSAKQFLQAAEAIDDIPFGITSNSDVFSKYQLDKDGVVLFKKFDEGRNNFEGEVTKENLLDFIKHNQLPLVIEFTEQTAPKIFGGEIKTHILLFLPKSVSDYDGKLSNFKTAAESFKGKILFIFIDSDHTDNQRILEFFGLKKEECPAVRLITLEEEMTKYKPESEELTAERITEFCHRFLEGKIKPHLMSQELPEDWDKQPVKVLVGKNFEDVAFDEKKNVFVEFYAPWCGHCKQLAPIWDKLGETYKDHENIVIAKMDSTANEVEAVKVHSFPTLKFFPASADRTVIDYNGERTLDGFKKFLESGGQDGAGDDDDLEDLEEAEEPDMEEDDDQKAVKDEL

`CCOC(=O)c1cc(OC)c(OC(=O)CCCc2ccc(NC(=O)c3ccc(C)nc3-c3ccc(C(F)(F)F)cc3)c(C(=O)N(C)C)c2)c(C(=O)OC)c1` [Compound 1-54, 4-[4-(3-dimethylcarbamoyl-4-{[6-methyl-2-(4-trifluoromethylphenyl)pyridine-3-carbonyl]amino}phenyl)butyryloxy]-5-methoxyisophthalic acid 1-ethyl ester 3-methyl ester]: the remaining at 10 min in data set [1] stood at 97%; in data set [2] it was 10%; in data set [3] it was 0%. Moreover, the remaining at 1 h came out at 105% in data set [1], 2% in data set [2] and 0% in data set [3]. For the same molecule, the “Human intestine MTP (IC50(nM))” value in data set [4] was “+ ++”.

Take `COC(=O)c1ccc(OC(=O)CCCc2ccc(NC(=O)c3ccc(C)nc3-c3ccc(C(F)(F)F)cc3)c(C(=O)N(C)C)c2)c(C(=O)OC)c1` [Compound 1-70, 4-[4-(3-dimethylcarbamoyl-4-{[6-methyl-2-(4-trifluoromethylphenyl)pyridine-3-carbonyl]amino}phenyl)butyryloxy]isophthalic acid dimethyl ester]: the remaining at 10 min in data set [1] was 101%; in data set [2] it was 0%; in data set [3], 0%. Further, the remaining at 1 h in data set [1] was 104%; in data set [2] it was 0%; in data set [3], 0%. For the same molecule, the “Human intestine MTP (IC50(nM))” value in data set [4] is given as “+ ++”.

As for `COC(=O)c1ccc(OC(=O)CCCc2ccc(NC(=O)c3ccc(C)cc3-c3ccc(C(F)(F)F)cc3)c(C(=O)N(C)C)c2)cc1` [Compound 1-9, 4-(4-{3-dimethylcarbamoyl-4-[(5-methyl-4'-trifluoromethylbiphenyl-2-carbonyl)amino]phenyl}butyryloxy) benzoic acid methyl ester], the remaining at 10 min turned out to be 94% in data set [1], 0% in data set [2] and 34% in data set [3]. For the same molecule, the remaining at 1 h was found to be 97% in data set [1], 0% in data set [2] and 0% in data set [3]. The “Human intestine MTP (IC50(nM))” value in data set [4] was “++ +”.

As for `COC(=O)c1cc(C)c(OC(=O)CCCc2ccc(NC(=O)c3ccc(C)nc3-c3ccc(C(F)(F)F)cc3)c(C(=O)N(C)C)c2)c(C(=O)OC)c1` [Compound 1-110, 4-[4-(3-dimethylcarbamoyl-4-{[6-methyl-2-(4-trifluoromethylphenyl)pyridine-3-carbonyl]amino}phenyl)butyryloxy]-5-methylisophthalic acid dimethyl ester], the remaining at 10 min is 99% in data set [1], 5% in data set [2] and 26% in data set [3]. For the same molecule, the remaining at 1 h in data set [1] worked out at 102%; in data set [2] it was 0%; in data set [3] it was 0%.

Take `CN(C)C(=O)c1cc(CCCC(=O)Oc2ccc(C(=O)OCc3ccccc3)cc2)ccc1NC(=O)c1ccccc1-c1ccc(C(F)(F)F)cc1` [Compound 1-24, 4-(4-{3-dimethylcarbamoyl-4-[(4'-trifluoromethylbiphenyl-2-carbonyl)amino]phenyl}butyryloxy)benzoic acid benzyl ester]: the remaining at 10 min in data set [1] was 95%; in data set [2], 10%; in data set [3] it was 9%. The remaining at 1 h in data set [1] was found to be 95%; in data set [2], 6%; in data set [3], 4%.

For the molecule `CC(C)OC(=O)c1ccc(OC(=O)CCCc2ccc(NC(=O)c3ccccc3-c3ccc(C(F)(F)F)cc3)c(C(=O)N(C)C)c2)cc1` [Compound 1-7, 4-(4-{3-dimethylcarbamoyl-4-[(4'-trifluoromethylbiphenyl-2-carbonyl)amino]phenyl}butyryloxy)benzoic acid isopropyl ester], the remaining at 10 min in data set [1] came to 98%; in data set [2], 0%; in data set [3], 60%. Besides, the remaining at 1 h in data set [1] is 98%; in data set [2], 0%; in data set [3], 0%.

As for `COC(=O)c1cc(C)c(OC(=O)CCCc2ccc(NC(=O)c3ccccc3-c3ccc(C(F)(F)F)cc3)c(C(=O)N(C)C)c2)c(Cl)c1` [Compound 1-34, 3-chloro-4-(4-{3-dimethylcarbamoyl-4-[(4'-trifluoromethylbiphenyl-2-carbonyl)amino]phenyl}butyryloxy)-5-methylbenzoic acid methyl ester], the remaining at 10 min worked out at 98% in data set [1], 16% in data set [2] and 52% in data set [3]. In addition, the remaining at 1 h in data set [1] stood at 103%; in data set [2] it was 4%; in data set [3], 0%.

In the case of `Cc1ccc(C(=O)Nc2ccc(CCCC(=O)Oc3ccc(C(=O)OCc4cccnc4)cc3)cc2C(=O)N(C)C)c(-c2ccc(C(F)(F)F)cc2)n1` [Compound 1-94, 4-[4-(3-dimethylcarbamoyl-4-{[6-methyl-2-(4-trifluoromethylphenyl)pyridine-3-carbonyl]amino}phenyl)butyryloxy]benzoic acid pyridin-3-ylmethyl ester], the remaining at 10 min in data set [1] was 99%; in data set [2], 0%; in data set [3] it was 41%. For the same molecule, the remaining at 1 h in data set [1] is 102%; in data set [2] it was 0%; in data set [3] it was 9%.

For `COC(=O)c1ccc(OC(=O)CCCc2ccc(NC(=O)c3ccccc3-c3ccc(C(F)(F)F)cc3)c(C(=O)N(C)C)c2)cc1C` [Compound 1-14, 4-(4-{3-dimethylcarbamoyl-4-[(4'-trifluoromethylbiphenyl-2-carbonyl)amino]phenyl}butyryloxy)-2-methyl benzoic acid methyl ester], the remaining at 10 min in data set [1] came out at 101%; in data set [2] it was 2%; in data set [3] it was 43%. The figures for the remaining at 1 h in data set [1], in data set [2] and in data set [3] were 104%, 0% and 0%, respectively.

In the case of `CN(C)C(=O)c1cc(CCCC(=O)Oc2ccc(C(=O)OC3CCCc4ccccc43)cc2)ccc1NC(=O)c1ccccc1-c1ccc(C(F)(F)F)cc1` (stereo not drawn) [Compound 1-108, 4-[4-(3-dimethylcarbamoyl-4-{(4'-trifluoromethylbiphenyl-2-carbonyl)amino}phenyl)butyryloxy]benzoic acid 1,2,3,4-tetrahydronaphthalen-1-yl ester], the remaining at 10 min in data set [1] amounted to 98%; in data set [2], 25%; in data set [3] it was 89%. Moreover, the results for the remaining at 1 h in data set [1], in data set [2] and in data set [3] were 98%, 5% and 17%, respectively.
